The cell lines below were run with Cn1c(=O)n(-c2ccc(C(C)(C)C#N)cc2)c2c3cc(-c4cnc5ccccc5c4)ccc3ncc21 [Dactolisib] + CC(=O)Nc1cccc(-n2c(=O)n(C3CC3)c(=O)c3c(Nc4ccc(I)cc4F)n(C)c(=O)c(C)c32)c1 [Trametinib] (partner 0.02 µM) (assay: relative viability (nuclei count vs DMSO), 5 days (fraction); higher = more cells survive). Conditions: first compound 0.2 µM.
How it was run: (§1)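 Values are medians from duplicate plates. Each reflects relative viability, defined as the nuclei count of treated wells over that of vehicle wells. Lung cancer cell lines in 1536-well plates were pin-tool dosed one day after seeding with one drug alone or with a fixed anchor-drug dose plus five library-drug doses (not always all listed) in √10 steps, then fixed, stained and imaged at 4× after 5 days.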
With LU99A the relative viability was 0.192. Work on SW 900 yielded a relative viability of 0.318. For HCC-78, the relative viability was 0.312.

Each cell line was assayed with Cn1c(=O)n(-c2ccc(C(C)(C)C#N)cc2)c2c3cc(-c4cnc5ccccc5c4)ccc3ncc21 [Dactolisib] + CCNC(=O)c1noc(-c2cc(C(C)C)c(O)cc2O)c1-c1ccc(CN2CCOCC2)cc1 [Luminespib] (partner 0.01 µM) in the same assay as above. Conditions: first compound 0.002 µM.
How it was run: as §1
Work on NCI-H2342 yielded a relative viability of 0.677. NCI-H1623 showed a relative viability of 0.604. In the case of NCI-H727, the relative viability is reported as 0.417. With NCI-H1650 the relative viability was 0.19. Cell Line NCI-H1993 has a relative viability of 0.752. Work on SK-LU-1 yielded a relative viability of 0.211. In the case of NCI-H838, the relative viability is reported as 0.285. LCLC-103H gave a relative viability of 1.03. Work on NCI-H520 yielded a relative viability of 0.22. NCI-H2126 showed a relative viability of 0.803. For EMC-BAC-2, the relative viability was 1.15. NCI-H2085 gave a relative viability of 0.387. Work on NCI-H1666 yielded a relative viability of 1.1. Cell Line NCI-H596 has a relative viability of 0.925. With LK-2 the relative viability was 0.152. NCI-H2087 gave a relative viability of 0.281. Cell Line SK-MES-1 has a relative viability of 0.828. Cell Line H3255 has a relative viability of 0.843. For COR-L23, the relative viability was 0.678. For COR-L 105, the relative viability was 0.776. LOU-NH91 showed a relative viability of 0.378. ChaGo-K-1 gave a relative viability of 0.622. With NCI-H2170 the relative viability was 0.512. In the case of NCI-H2405, the relative viability is reported as 0.665. For HOP-62, the relative viability was 0.983. Work on HCC-44 yielded a relative viability of 0.914. NCI-H522 gave a relative viability of 1.15. LU99A was tested, and the relative viability was 0.257. SW 900 was tested, and the relative viability was 0.17. NCI-H1563 showed a relative viability of 0.535. With ABC-1 the relative viability was 0.496.

Same assay, conditions: first compound 0.006325 µM
Cell Line NCI-H2342 has a relative viability of 0.634. With NCI-H1623 the relative viability was 0.491. Cell Line NCI-H727 has a relative viability of 0.419. In the case of NCI-H1650, the relative viability is reported as 0.185. Work on NCI-H1993 yielded a relative viability of 0.738. In the case of SK-LU-1, the relative viability is reported as 0.18. In the case of NCI-H838, the relative viability is reported as 0.377. LCLC-103H was tested, and the relative viability was 0.905. NCI-H520 showed a relative viability of 0.184. With NCI-H2126 the relative viability was 0.868. Cell Line EMC-BAC-2 has a relative viability of 1.14. NCI-H2085 gave a relative viability of 0.388. Cell Line NCI-H1666 has a relative viability of 0.963. Work on NCI-H596 yielded a relative viability of 0.938. For LK-2, the relative viability was 0.198. In the case of NCI-H2087, the relative viability is reported as 0.164. For SK-MES-1, the relative viability was 0.744. In the case of H3255, the relative viability is reported as 0.875. For COR-L23, the relative viability was 0.49. For COR-L 105, the relative viability was 0.889. LOU-NH91 showed a relative viability of 0.295. ChaGo-K-1 was tested, and the relative viability was 0.562. For NCI-H2170, the relative viability was 0.805. NCI-H2405 was tested, and the relative viability was 0.689. In the case of HOP-62, the relative viability is reported as 0.812. In the case of HCC-44, the relative viability is reported as 1.04. Cell Line NCI-H522 has a relative viability of 1.17. LU99A showed a relative viability of 0.228. Cell Line SW 900 has a relative viability of 0.2. NCI-H1563 gave a relative viability of 0.532. ABC-1 was tested, and the relative viability was 0.59.

Same assay, conditions: first compound 0.02 µM
In the case of NCI-H2342, the relative viability is reported as 0.653. Cell Line NCI-H1623 has a relative viability of 0.462. NCI-H727 gave a relative viability of 0.351. NCI-H1650 gave a relative viability of 0.192. NCI-H1993 was tested, and the relative viability was 0.637. SK-LU-1 gave a relative viability of 0.214. With NCI-H838 the relative viability was 0.317. LCLC-103H was tested, and the relative viability was 0.844. Work on NCI-H520 yielded a relative viability of 0.233. For NCI-H2126, the relative viability was 0.809. In the case of EMC-BAC-2, the relative viability is reported as 1.1. With NCI-H2085 the relative viability was 0.374. NCI-H1666 was tested, and the relative viability was 1.02. For NCI-H596, the relative viability was 0.583. In the case of LK-2, the relative viability is reported as 0.195. In the case of NCI-H2087, the relative viability is reported as 0.146. For SK-MES-1, the relative viability was 0.349. With H3255 the relative viability was 0.912. Cell Line COR-L23 has a relative viability of 0.284. COR-L 105 was tested, and the relative viability was 0.55. LOU-NH91 showed a relative viability of 0.351. In the case of ChaGo-K-1, the relative viability is reported as 0.582. In the case of NCI-H2170, the relative viability is reported as 0.722. NCI-H2405 gave a relative viability of 0.755. HOP-62 showed a relative viability of 0.888. With HCC-44 the relative viability was 0.943. Cell Line NCI-H522 has a relative viability of 1.22. LU99A gave a relative viability of 0.29. Cell Line SW 900 has a relative viability of 0.157. NCI-H1563 was tested, and the relative viability was 0.511.

Same assay, conditions: first compound 0.06325 µM
In the case of NCI-H2342, the relative viability is reported as 0.495. In the case of NCI-H1623, the relative viability is reported as 0.308. With NCI-H727 the relative viability was 0.436. NCI-H1650 gave a relative viability of 0.206. NCI-H1993 was tested, and the relative viability was 0.442. Cell Line SK-LU-1 has a relative viability of 0.159. Cell Line NCI-H838 has a relative viability of 0.174. LCLC-103H was tested, and the relative viability was 0.483. For NCI-H520, the relative viability was 0.207. Work on NCI-H2126 yielded a relative viability of 0.334. For EMC-BAC-2, the relative viability was 0.875. NCI-H2085 gave a relative viability of 0.208. Cell Line NCI-H1666 has a relative viability of 0.746. For NCI-H596, the relative viability was 0.347. For LK-2, the relative viability was 0.171. For NCI-H2087, the relative viability was 0.128. Work on SK-MES-1 yielded a relative viability of 0.286. H3255 gave a relative viability of 0.796. Cell Line COR-L23 has a relative viability of 0.123. Cell Line COR-L 105 has a relative viability of 0.334. LOU-NH91 was tested, and the relative viability was 0.316. For ChaGo-K-1, the relative viability was 0.39. With NCI-H2170 the relative viability was 0.435. Work on NCI-H2405 yielded a relative viability of 0.393. HOP-62 showed a relative viability of 0.543. HCC-44 gave a relative viability of 0.379. NCI-H522 showed a relative viability of 0.659. Cell Line LU99A has a relative viability of 0.202. With SW 900 the relative viability was 0.174. NCI-H1563 was tested, and the relative viability was 0.47. Work on ABC-1 yielded a relative viability of 0.257.

Same assay, conditions: first compound 0.2 µM
Work on NCI-H2342 yielded a relative viability of 0.437. NCI-H1623 was tested, and the relative viability was 0.275. For NCI-H727, the relative viability was 0.447. In the case of NCI-H1650, the relative viability is reported as 0.202. For NCI-H1993, the relative viability was 0.488. Work on SK-LU-1 yielded a relative viability of 0.132. With NCI-H838 the relative viability was 0.159. LCLC-103H gave a relative viability of 0.444. NCI-H520 gave a relative viability of 0.204. In the case of NCI-H2126, the relative viability is reported as 0.296. Work on EMC-BAC-2 yielded a relative viability of 0.556. Work on NCI-H2085 yielded a relative viability of 0.239. Cell Line NCI-H1666 has a relative viability of 0.788. Cell Line NCI-H596 has a relative viability of 0.28. Cell Line LK-2 has a relative viability of 0.197. In the case of NCI-H2087, the relative viability is reported as 0.121. SK-MES-1 gave a relative viability of 0.171. For H3255, the relative viability was 0.511. Work on COR-L23 yielded a relative viability of 0.138. With COR-L 105 the relative viability was 0.254. With LOU-NH91 the relative viability was 0.317. ChaGo-K-1 showed a relative viability of 0.463. In the case of NCI-H2170, the relative viability is reported as 0.195. For NCI-H2405, the relative viability was 0.272. Cell Line HOP-62 has a relative viability of 0.561. Work on HCC-44 yielded a relative viability of 0.644. Cell Line NCI-H522 has a relative viability of 0.596. Work on LU99A yielded a relative viability of 0.192. For SW 900, the relative viability was 0.169. For NCI-H1563, the relative viability was 0.507. With ABC-1 the relative viability was 0.366.

Each cell line was assayed with Cn1c(=O)n(-c2ccc(C(C)(C)C#N)cc2)c2c3cc(-c4cnc5ccccc5c4)ccc3ncc21 [Dactolisib] + C[C@]1(O)C[C@@H](c2nc(-c3ccc4ccc(-c5ccccc5)nc4c3)c3c(N)nccn32)C1 [Linsitinib] (partner 1 µM) in the same assay as above. Conditions: first compound 0.002 µM.
How it was run: as §1
Cell Line NCI-H727 has a relative viability of 0.271.

— the supplement of paper PMC10307832
